# Results from patent US10206394B2, “Herbicidal compounds” (Syngenta Participations AG, priority 2014, dated 2019).
# Read-outs that look alike come from different tables or passages of the source.
# Key:
# Test in all cases: Glasshouse assay for herbicidal activity (pre- and post-emergence), percentage phytotoxicity
# Format in all cases: in vivo
# Lolium perenne (LOLPE) = details: Lolium perenne, Rate 250 g/ha, 100%=total damage, 0%=no damage
# Method: (§1) Test—Glasshouse Assay for Herbicidal Activity
# (§2) Seeds of a variety of monocotyledonous and dicotyledonous test plants are sown in standard soil in pots. The plants are cultivated for one day (for pre-emergence (PRE)) or for about 12 days (for post-emergence (POST)) under controlled conditions in a glasshouse (warm climate species at 24/18° C., cool climate species at 20/16° C., both at day/night; 16 hours light; 65% humidity).
# (§3) The test plants are then grown on, in a glasshouse (greenhouse) under controlled conditions (warm climate species at 24/18° C., cool climate species at 20/16° C., both at day/night; 16 hours light; 65% humidity) and are watered twice daily. 15 days after application of the test herbicide (15 DAA) (for post-emergence), and 20 days after application of the test herbicide (20 DAA) (for pre-emergence), the test plants are evaluated visually, and an assessed percentage phytotoxicity score is given for each herbicidal application on each plant species (with 100%=total damage to plant; 0%=no damage to plant).
# (§4) The plant species tested are as follows: Alopecurus myosuroides (ALOMY), Avena fatua (AVEFA), Lolium perenne (LOLPE), Echinochloa crus-galli (ECHCG).
# [1] = system: Echinochloa crus-galli (ECHCG); details: Echinochloa crus-galli, Rate 250 g/ha, 100%=total damage, 0%=no damage
# Method: as §1, §2, §3, §4
# [2] = system: Alopecurus myosuroides (ALOMY); details: Alopecurus myosuroides, Rate 250 g/ha, 100%=total damage, 0%=no damage
# Method: as §1, §2, §3, §4
# Avena fatua (AVEFA) = details: Avena fatua, Rate 250 g/ha, 100%=total damage, 0%=no damage
# Method: as §1, §2, §3, §4
# [3] = post-emergence, 360 h, post-emergence, assessed visually 15 DAA, read-out: Post-emergence herbicidal activity (percentage phytotoxicity) LOLPE POST
# [4] = pre-emergence, 480 h, pre-emergence, assessed visually 20 DAA, read-out: Pre-emergence herbicidal activity (percentage phytotoxicity) LOLPE PRE
# [5] = post-emergence, 360 h, post-emergence, assessed visually 15 DAA, read-out: Post-emergence herbicidal activity (percentage phytotoxicity) ECHCG POST
# [6] = pre-emergence, 480 h, pre-emergence, assessed visually 20 DAA, read-out: Pre-emergence herbicidal activity (percentage phytotoxicity) ECHCG PRE
# [7] = post-emergence, 360 h, post-emergence, assessed visually 15 DAA, read-out: Post-emergence herbicidal activity (percentage phytotoxicity) ALOMY POST
# [8] = pre-emergence, 480 h, pre-emergence, assessed visually 20 DAA, read-out: Pre-emergence herbicidal activity (percentage phytotoxicity) ALOMY PRE
# [9] = post-emergence, 360 h, post-emergence, assessed visually 15 DAA, read-out: Post-emergence herbicidal activity (percentage phytotoxicity) AVEFA POST
# [10] = pre-emergence, 480 h, pre-emergence, assessed visually 20 DAA, read-out: Pre-emergence herbicidal activity (percentage phytotoxicity) AVEFA PRE
SMILES,"pest or weed control at 250 g/ha (Lolium perenne (LOLPE); post-emergence, 360 h, post-emergence, visual assessment 15 DAA, read-out: Post-emergence herbicidal activity (percentage phytotoxicity) LOLPE POST) [%]","pest or weed control at 250 g/ha (Lolium perenne (LOLPE); pre-emergence, 480 h, pre-emergence, visual assessment 20 DAA, read-out: Pre-emergence herbicidal activity (percentage phytotoxicity) LOLPE PRE) [%]","pest or weed control at 250 g/ha ([1]; post-emergence, 360 h, post-emergence, visual assessment 15 DAA, read-out: Post-emergence herbicidal activity (percentage phytotoxicity) ECHCG POST) [%]","pest or weed control at 250 g/ha ([1]; pre-emergence, 480 h, pre-emergence, visual assessment 20 DAA, read-out: Pre-emergence herbicidal activity (percentage phytotoxicity) ECHCG PRE) [%]","pest or weed control at 250 g/ha ([2]; post-emergence, 360 h, post-emergence, visual assessment 15 DAA, read-out: Post-emergence herbicidal activity (percentage phytotoxicity) ALOMY POST) [%]","pest or weed control at 250 g/ha ([2]; pre-emergence, 480 h, pre-emergence, visual assessment 20 DAA, read-out: Pre-emergence herbicidal activity (percentage phytotoxicity) ALOMY PRE) [%]","pest or weed control at 250 g/ha (Avena fatua (AVEFA); post-emergence, 360 h, post-emergence, visual assessment 15 DAA, read-out: Post-emergence herbicidal activity (percentage phytotoxicity) AVEFA POST) [%]","pest or weed control at 250 g/ha (Avena fatua (AVEFA); pre-emergence, 480 h, pre-emergence, visual assessment 20 DAA, read-out: Pre-emergence herbicidal activity (percentage phytotoxicity) AVEFA PRE) [%]",pest or weed control at 250 g/ha (Lolium perenne (LOLPE); [3]) [%],pest or weed control at 250 g/ha (Lolium perenne (LOLPE); [4]) [%],"pest or weed control at 250 g/ha [1, 5] [%]","pest or weed control at 250 g/ha [1, 6] [%]","pest or weed control at 250 g/ha [2, 7] [%]","pest or weed control at 250 g/ha [2, 8] [%]",pest or weed control at 250 g/ha (Avena fatua (AVEFA); [9]) [%],pest or weed control at 250 g/ha (Avena fatua (AVEFA); [10]) [%]
COCC(C)(C)NC(=O)CC1CC(=O)C(c2c(C)cc(-c3ccc(Cl)cn3)cc2C)C1=O (stereo not shown) [Compound B364],90,90,90,90,100,100,90,80,,,,,,,,
Cc1cc(-c2ncc(Cl)cc2F)cc(C)c1C1C(=O)CC(CC(=O)NC2CC2)C1=O (stereo not shown) [Compound A45],,,,,,,,,100,100,100,100,100,100,100,100
CC#Cc1cc(C)c(C2C(=O)CC(CC(=O)NC(C)(C)C)C2=O)c(CC)c1 (stereo not shown) [Compound A48],,,,,,,,,100,100,100,100,100,100,100,90
Cc1cc(-n2cc(Cl)cn2)cc(C)c1C1C(=O)CC(CC(=O)NCc2ccccn2)C1=O (stereo not shown) [Compound A71],,,,,,,,,70,60,100,90,100,80,90,80
"Cc1cc(-c2ccc(F)cc2)cc(C)c1C1C(=O)CC(CC(=O)NC(C)C)C1=O (stereo not shown) [Compound A34, 2-[3-[4-(4-fluorophenyl)-2,6-dimethyl-phenyl]-2,4-dioxo-cyclopentyl]-N-isopropyl-acetamide]",,,,,,,,,100,100,100,100,100,100,100,100
